Test results: patent US12595253B2, “Benzamides of pyrazolylamino-pyrimidinyl derivatives, and compositions and methods thereof” (LYNK PHARMACEUTICALS CO. LTD., priority 2019, dated 2026)

Key:
CYP2C19 = molecular target: T1, CYP2C19 (Homo sapiens, UniProt P33261); assay: CYPs inhibition in pooled human liver microsomes, probe substrate S-mephenytoin; assay type: in vitro ADME
T1 construct: 0.2 mg/mL human liver microsomes was pre-incubated in 180 μL reaction mixture; from tissue; host or cells: pooled human liver microsomes
Description: (§1) The inhibitory potential of test articles in pooled human liver microsomes was evaluated by the method using a cocktail of CYP substrates. […] For the negative control well, the test articles was replaced with 20 μL reaction buffer. After 10 min of pre-incubation at 37° C., 20 μL 10 mM NADPH cofactor was added to the pre-reaction mixtures. After another 10 min incubation, the reaction was stopped by adding 400 μL of ice cold acetonitrile solution containing tolbutamide and labetalol served as internal standards. The incubation mixtures were centrifuged at 4000×g for 20 min, and then the supernatants were analyzed by LC-MS/MS after dilution. SigmaPlot was applied to plot % control activity versus the test compound concentrations, and for non-linear regression analysis of the data. IC50 values of test articles were determined using 3-parameter logistic equation.

JAK2 = molecular target: T2, JAK2 (Homo sapiens, UniProt O60674); assay: JAK2 microfluidic kinase assay (Caliper EZ Reader II, FAM labeled peptide substrate); assay type: biochemical; conditions: IC50 JAK2 ([…]) (1 mM ATP), 1 mM ATP
T2 construct: purchased Carna Biosciences
How it was run: (§2)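 3-fold serial dilutions, top 5 μM, 1% DMSO final; 10 min preincubation with enzyme, RT. Buffer: 50 mM HEPES, 0.01% Brij35, 10 mM MgCl2, 2 mM DTT. Enzyme batch tuned to 10% peptide conversion. EDTA stop, mobility-shift readout, IC50 fit.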

CYP2D6 = molecular target: T3, CYP2D6 (Homo sapiens, UniProt P10635); assay: CYPs inhibition in pooled human liver microsomes, probe substrate Dextromethorphan; assay type: in vitro ADME
T3 construct: 0.2 mg/mL human liver microsomes was pre-incubated in 180 μL reaction mixture; from tissue; host or cells: pooled human liver microsomes
Description: as §1

JAK1 = molecular target: T4, JAK1 (Homo sapiens, UniProt P23458); assay: JAK1 microfluidic kinase assay (Caliper EZ Reader II, FAM labeled peptide substrate); assay type: biochemical; conditions: IC50 JAK1 (5 nM) (1 m MATP), JAK1 5 nM, 1 mM ATP
T4 construct: purchased Carna Biosciences
How it was run: as §2

CYP2C9 = molecular target: T5, CYP2C9 (Homo sapiens, UniProt P11712); assay: CYPs inhibition in pooled human liver microsomes, probe substrate Diclofenac; assay type: in vitro ADME
T5 construct: 0.2 mg/mL human liver microsomes was pre-incubated in 180 μL reaction mixture; from tissue; host or cells: pooled human liver microsomes
Description: as §1

[1] = Liver microsomes study, Phase I stability (HLM); assay type: in vitro ADME, human; conditions: pH 7.4; human liver microsomes 0.5 mg/mL, 1 μM test article; read-out: HLM Clint
How it was run: (§3)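 Rat or human liver microsomes were incubated with test article, and reactions started with an NADPH regenerating system. Samples at 0, 10, 30 and 90 minutes were quenched with cold acetonitrile and analyzed by LC/MS/MS. T½ and CLint came from the ln(% remaining) versus time slope, scaled by protein concentration.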

JAK2V617F = molecular target: T6, JAK2V617F (Homo sapiens, UniProt O60674, V617F); assay: JAK2V617F microfluidic kinase assay (Caliper EZ Reader II, FAM labeled peptide substrate); assay type: biochemical; conditions: JAK2V617F 2.5 nM, 1 mM ATP
T6 construct: purchased Carna Biosciences
How it was run: as §2

CYP1A2 = molecular target: T7, CYP1A2 (Homo sapiens, UniProt P05177); assay: CYPs inhibition in pooled human liver microsomes, probe substrate Phenacetin; assay type: in vitro ADME
T7 construct: 0.2 mg/mL human liver microsomes was pre-incubated in 180 μL reaction mixture; from tissue; host or cells: pooled human liver microsomes
T7 sequence (P05177 1-516): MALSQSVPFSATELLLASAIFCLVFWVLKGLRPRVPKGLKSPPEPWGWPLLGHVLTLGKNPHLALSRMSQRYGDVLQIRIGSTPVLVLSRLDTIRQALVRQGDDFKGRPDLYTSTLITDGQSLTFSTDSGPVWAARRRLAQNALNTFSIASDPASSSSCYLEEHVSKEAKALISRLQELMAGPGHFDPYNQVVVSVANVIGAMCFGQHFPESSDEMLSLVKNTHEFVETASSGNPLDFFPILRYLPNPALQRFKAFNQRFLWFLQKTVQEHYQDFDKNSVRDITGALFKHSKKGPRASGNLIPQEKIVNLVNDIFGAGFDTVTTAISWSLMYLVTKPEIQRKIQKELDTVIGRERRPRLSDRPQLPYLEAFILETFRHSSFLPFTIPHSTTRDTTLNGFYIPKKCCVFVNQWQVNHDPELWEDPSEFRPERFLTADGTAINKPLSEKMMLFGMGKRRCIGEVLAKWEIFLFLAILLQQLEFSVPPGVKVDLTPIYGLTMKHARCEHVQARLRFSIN
Description: as §1

TYK2 = molecular target: T8, TYK2 (Homo sapiens, UniProt P29597); assay: TYK2 microfluidic kinase assay (Caliper EZ Reader II, FAM labeled peptide substrate); assay type: biochemical; conditions: IC50 TYK2 ([…]) (1 mM ATP), TYK2 […], 1 mM ATP
T8 construct: purchased Carna Biosciences
How it was run: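 IC50s derive from dose-response of % inhibition of FAM-peptide phosphorylation, read by microfluidic mobility shift after 50 mM EDTA stop. Enzyme pre-incubated 10 min with 3-fold serial dilutions (top 5 μM, 1% DMSO) in HEPES/Brij35/MgCl2/DTT buffer, ~10% conversion; run times 120, 20, 30, 10 min for JAK1, JAK2, JAK2V617F, TYK2.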

CYP3A4 = molecular target: T9, CYP3A4 (Homo sapiens, UniProt P08684); assay: CYPs inhibition in pooled human liver microsomes, probe substrate Midazolam; assay type: in vitro ADME
T9 construct: 0.2 mg/mL human liver microsomes was pre-incubated in 180 μL reaction mixture; from tissue; host or cells: pooled human liver microsomes
Description: as §1

[2] = Liver microsomes study, Phase I stability (RLM); assay type: in vitro ADME, rat; conditions: pH 7.4; rat liver microsomes 0.5 mg/mL, 1 μM test article; read-out: RLM Clint
How it was run: as §3

T1 sequence (P33261 whole entry): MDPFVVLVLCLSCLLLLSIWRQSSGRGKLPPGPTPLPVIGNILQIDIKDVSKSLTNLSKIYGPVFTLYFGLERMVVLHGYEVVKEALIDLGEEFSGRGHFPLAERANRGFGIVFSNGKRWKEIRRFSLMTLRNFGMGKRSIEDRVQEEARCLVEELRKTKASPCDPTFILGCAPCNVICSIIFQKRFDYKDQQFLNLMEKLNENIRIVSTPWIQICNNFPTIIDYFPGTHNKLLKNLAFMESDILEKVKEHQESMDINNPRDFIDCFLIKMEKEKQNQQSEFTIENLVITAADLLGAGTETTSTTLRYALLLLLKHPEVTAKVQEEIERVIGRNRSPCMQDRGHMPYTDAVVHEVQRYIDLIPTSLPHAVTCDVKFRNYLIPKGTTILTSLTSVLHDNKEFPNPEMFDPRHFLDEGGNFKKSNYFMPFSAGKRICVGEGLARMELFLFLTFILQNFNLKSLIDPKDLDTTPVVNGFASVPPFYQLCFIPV
T8 sequence (P29597 whole entry): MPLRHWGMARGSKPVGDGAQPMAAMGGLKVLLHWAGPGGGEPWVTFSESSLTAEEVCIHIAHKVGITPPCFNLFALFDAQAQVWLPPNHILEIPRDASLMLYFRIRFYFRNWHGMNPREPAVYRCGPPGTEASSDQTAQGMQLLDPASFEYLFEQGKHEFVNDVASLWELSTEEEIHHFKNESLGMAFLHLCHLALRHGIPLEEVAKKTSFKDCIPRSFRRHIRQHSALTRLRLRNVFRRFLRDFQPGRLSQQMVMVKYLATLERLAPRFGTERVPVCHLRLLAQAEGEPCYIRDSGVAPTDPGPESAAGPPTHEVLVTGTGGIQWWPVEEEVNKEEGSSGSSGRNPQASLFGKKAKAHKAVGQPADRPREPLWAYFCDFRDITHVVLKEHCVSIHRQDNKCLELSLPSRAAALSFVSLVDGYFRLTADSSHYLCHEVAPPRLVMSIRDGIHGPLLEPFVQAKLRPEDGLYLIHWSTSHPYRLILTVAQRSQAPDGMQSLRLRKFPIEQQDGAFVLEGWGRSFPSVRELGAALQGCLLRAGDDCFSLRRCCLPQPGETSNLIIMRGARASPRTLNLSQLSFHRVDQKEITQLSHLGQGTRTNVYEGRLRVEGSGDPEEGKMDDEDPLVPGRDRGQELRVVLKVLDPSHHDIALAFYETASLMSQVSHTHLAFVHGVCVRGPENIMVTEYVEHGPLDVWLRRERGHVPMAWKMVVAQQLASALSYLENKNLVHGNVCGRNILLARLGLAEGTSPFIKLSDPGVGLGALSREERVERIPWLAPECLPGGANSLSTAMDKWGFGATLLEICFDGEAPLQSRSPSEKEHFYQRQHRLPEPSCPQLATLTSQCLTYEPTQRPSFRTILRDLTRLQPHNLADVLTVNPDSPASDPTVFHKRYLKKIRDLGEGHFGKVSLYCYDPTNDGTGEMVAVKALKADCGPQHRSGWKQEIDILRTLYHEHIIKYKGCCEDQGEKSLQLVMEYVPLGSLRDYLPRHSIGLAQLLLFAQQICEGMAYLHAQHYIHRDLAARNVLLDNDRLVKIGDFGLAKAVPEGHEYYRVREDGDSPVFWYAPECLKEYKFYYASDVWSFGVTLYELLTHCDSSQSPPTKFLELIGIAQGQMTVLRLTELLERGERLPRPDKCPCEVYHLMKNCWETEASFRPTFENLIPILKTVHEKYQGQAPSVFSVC
T3 sequence (P10635 whole entry): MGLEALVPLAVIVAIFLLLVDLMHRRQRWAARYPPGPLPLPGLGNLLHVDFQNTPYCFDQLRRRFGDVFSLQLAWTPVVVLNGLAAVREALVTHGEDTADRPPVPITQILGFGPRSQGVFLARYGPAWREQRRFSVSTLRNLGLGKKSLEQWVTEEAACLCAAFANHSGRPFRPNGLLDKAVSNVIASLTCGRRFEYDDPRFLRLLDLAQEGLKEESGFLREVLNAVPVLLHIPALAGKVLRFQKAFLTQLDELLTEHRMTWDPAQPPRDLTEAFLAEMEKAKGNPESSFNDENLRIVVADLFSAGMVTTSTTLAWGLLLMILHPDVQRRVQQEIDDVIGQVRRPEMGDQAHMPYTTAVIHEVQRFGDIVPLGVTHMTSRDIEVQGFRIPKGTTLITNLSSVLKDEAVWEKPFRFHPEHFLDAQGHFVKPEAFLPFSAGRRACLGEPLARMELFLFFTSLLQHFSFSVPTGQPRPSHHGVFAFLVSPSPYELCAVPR
T4 sequence (P23458 whole entry): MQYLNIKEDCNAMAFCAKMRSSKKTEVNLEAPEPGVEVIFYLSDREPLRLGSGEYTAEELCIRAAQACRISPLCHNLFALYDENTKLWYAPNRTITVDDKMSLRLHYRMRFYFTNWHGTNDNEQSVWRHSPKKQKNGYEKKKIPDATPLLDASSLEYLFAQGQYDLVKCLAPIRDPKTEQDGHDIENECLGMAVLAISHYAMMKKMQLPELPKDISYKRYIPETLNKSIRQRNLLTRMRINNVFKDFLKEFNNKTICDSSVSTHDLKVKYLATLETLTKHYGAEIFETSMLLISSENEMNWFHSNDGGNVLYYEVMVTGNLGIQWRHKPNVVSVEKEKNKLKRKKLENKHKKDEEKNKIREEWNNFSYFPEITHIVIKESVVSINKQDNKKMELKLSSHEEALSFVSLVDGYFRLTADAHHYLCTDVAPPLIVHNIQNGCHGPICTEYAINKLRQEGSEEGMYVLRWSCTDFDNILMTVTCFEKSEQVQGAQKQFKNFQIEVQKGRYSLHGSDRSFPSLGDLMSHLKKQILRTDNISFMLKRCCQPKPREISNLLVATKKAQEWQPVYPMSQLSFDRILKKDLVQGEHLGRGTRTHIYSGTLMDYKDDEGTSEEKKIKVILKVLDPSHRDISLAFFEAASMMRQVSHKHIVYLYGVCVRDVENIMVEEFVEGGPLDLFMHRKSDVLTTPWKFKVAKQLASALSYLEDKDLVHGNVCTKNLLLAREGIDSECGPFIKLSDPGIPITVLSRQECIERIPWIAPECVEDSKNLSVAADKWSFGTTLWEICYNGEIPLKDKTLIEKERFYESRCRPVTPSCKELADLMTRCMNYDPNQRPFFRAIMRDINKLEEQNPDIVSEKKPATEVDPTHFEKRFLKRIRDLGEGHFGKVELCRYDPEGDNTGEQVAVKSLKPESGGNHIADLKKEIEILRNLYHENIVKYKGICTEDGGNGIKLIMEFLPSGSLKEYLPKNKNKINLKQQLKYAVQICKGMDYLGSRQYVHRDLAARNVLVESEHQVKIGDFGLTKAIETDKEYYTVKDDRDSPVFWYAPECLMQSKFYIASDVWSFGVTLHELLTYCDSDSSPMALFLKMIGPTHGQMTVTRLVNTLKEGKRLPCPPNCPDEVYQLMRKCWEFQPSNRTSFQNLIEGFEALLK
T6 sequence (O60674 whole entry V617F): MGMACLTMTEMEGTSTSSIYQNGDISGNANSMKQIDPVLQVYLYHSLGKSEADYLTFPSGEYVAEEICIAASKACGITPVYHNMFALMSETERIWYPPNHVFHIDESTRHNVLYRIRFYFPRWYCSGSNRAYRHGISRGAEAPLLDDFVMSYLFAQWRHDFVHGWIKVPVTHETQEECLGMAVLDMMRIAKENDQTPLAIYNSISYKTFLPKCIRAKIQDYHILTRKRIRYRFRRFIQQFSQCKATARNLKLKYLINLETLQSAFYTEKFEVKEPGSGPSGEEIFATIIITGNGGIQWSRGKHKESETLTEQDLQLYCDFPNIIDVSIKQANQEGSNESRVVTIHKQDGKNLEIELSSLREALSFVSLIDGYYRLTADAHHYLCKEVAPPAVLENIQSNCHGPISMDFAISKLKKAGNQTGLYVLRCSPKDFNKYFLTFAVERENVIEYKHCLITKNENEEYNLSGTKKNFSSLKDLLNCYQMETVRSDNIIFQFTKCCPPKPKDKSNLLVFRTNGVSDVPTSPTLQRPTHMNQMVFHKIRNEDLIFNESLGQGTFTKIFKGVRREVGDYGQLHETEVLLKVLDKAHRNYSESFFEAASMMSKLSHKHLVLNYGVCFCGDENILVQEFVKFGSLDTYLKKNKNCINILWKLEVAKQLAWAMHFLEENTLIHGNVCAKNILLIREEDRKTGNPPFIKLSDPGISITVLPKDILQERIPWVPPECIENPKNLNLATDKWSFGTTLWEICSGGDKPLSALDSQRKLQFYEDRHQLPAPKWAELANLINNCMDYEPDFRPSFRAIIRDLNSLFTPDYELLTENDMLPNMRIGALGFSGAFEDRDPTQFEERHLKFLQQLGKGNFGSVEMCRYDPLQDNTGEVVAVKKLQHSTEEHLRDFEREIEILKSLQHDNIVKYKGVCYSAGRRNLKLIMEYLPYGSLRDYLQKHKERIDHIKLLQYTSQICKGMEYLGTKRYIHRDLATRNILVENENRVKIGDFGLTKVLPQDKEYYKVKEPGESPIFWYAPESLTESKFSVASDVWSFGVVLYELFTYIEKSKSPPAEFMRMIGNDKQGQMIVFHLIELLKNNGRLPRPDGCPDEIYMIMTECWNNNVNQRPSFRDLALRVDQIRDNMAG
T5 sequence (P11712 whole entry): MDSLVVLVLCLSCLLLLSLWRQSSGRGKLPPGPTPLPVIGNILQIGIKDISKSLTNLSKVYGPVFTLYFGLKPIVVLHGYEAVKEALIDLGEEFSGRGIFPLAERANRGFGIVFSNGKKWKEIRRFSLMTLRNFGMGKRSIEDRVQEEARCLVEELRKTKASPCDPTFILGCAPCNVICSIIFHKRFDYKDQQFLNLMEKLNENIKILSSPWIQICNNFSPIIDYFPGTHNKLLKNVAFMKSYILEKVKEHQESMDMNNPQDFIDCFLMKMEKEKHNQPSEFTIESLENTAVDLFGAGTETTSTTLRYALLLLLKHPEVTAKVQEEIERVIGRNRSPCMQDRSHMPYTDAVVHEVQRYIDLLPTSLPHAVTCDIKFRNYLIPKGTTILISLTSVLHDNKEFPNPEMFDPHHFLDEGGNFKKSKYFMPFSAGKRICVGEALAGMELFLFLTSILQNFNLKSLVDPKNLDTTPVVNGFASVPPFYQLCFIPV
T2 sequence (O60674 whole entry): as the sequence (O60674 whole entry V617F) above, with F617V counted along it

SMILES	IC50 (CYP2C19)	IC50 (JAK2)	IC50 (CYP2D6)	IC50 (JAK1)	IC50 (CYP2C9)	microsomal CLint at 1 μM [1]	IC50 (JAK2V617F)	IC50 (CYP1A2)	IC50 (TYK2)	IC50 (CYP3A4)	microsomal CLint at 1 μM [2]
C[C@@H](C#N)NC(=O)c1ccc(-c2nc(Nc3cnn(C4CCN(C)CC4)c3)ncc2F)cc1 [Example 50, (S)—N-(1-cyanoethyl)-4-(5-fluoro-2-((1-(1-methylpiperidin-4-yl)-1H-pyrazol-4-yl)amino)pyrimidin-4-yl)benzamide]	> 50 µM	0.11 µM	> 50 µM	0.0912 µM	> 50 µM	8.92 µL/min/mg	0.186 µM	> 50 µM	0.218 µM	> 50 µM	–
Cc1cnc(Nc2cnn(CCO)c2)nc1-c1ccc(C(=O)N[C@H](C#N)C2CC2)cc1 [Example 215, (S)—N-(cyano(cyclopropyl)methyl)-4-(2-((1-(2-hydroxyethyl)-1H-pyrazol-4-yl)amino)-5-methylpyrimidin-4-yl)benzamide]	> 50 µM	0.041 µM	> 50 µM	0.0057 µM	> 50 µM	–	–	> 50 µM	0.028 µM	> 50 µM	–
CC[C@@H](C#N)NC(=O)c1ccc(-c2nc(Nc3cnn(CCO)c3)ncc2Cl)cc1 [Example 167, (S)-4-(5-Chloro-2-((1-(2-hydroxyethyl)-1H-pyrazol-4-yl)amino)pyrimidin-4-yl)-N-(1-cyanopropyl)benzamide]	> 50 µM	0.0044 µM	37.8 µM	0.0012 µM	38.1 µM	7.06 µL/min/mg	–	> 50 µM	0.00264 µM	> 50 µM	14.4 µL/min/mg
CC[C@@H](C#N)NC(=O)c1ccc(-c2nc(Nc3cnn(C(C)C(F)(F)F)c3)ncc2C)cc1 (stereo partly drawn) [Example 195, N—((S)-1-cyanopropyl)-4-(5-methyl-2-((1-(1,1,1-trifluoropropan-2-yl)-1H-pyrazol-4-yl)amino)pyrimidin-4-yl)benzamide]	> 50 µM	0.0264 µM	30.7 µM	0.00361 µM	> 50 µM	–	0.0611 µM	> 50 µM	0.00542 µM	> 50 µM	–
COC[C@@H](C#N)NC(=O)c1ccc(-c2nc(Nc3cnn(C4CCN(C)CC4)c3)ncc2C)cc1 [Example 213, (R)—N-(1-Cyano-2-methoxyethyl)-4-(5-methyl-2-((1-(1-methylpiperidin-4-yl)-1H-pyrazol-4-yl)amino)pyrimidin-4-yl)benzamide]	> 50 µM	0.00173 µM	19.4 µM	0.00461 µM	> 50 µM	–	–	> 50 µM	0.0174 µM	> 50 µM	–
Cc1cnc(Nc2cnn(C3CCC(O)CC3)c2)nc1-c1ccc(C(=O)NCC#N)cc1 (centres unmarked) [Example 132, N-(Cyanomethyl)-4-(2-((1-(4-hydroxycyclohexyl)-1H-pyrazol-4-yl)amino)-5-methylpyrimidin-4-yl)benzamide]	10.4 µM	< 0.00025 µM	1.76 µM	0.00644 µM	5.93 µM	–	0.00289 µM	24.5 µM	0.0204 µM	31.5 µM	–
CC[C@@H](C#N)NC(=O)c1ccc(-c2nc(Nc3cn[nH]c3)ncc2Cl)cc1 [Example 185, (S)-4-(2-((1H-Pyrazol-4-yl)amino)-5-chloropyrimidin-4-yl)-N-(1-cyanopropyl)benzamide]	7.63 µM	0.0152 µM	2.3 µM	0.00158 µM	6.04 µM	–	–	10.7 µM	0.00351 µM	10.9 µM	–
